US7411069B2 (Hypnion, Inc., priority 2003, dated 2008)

Legend:
H1 histamine receptor = biological target: T1, H1 histamine receptor (Bos taurus, UniProt P30546); assay: H1 binding assay ([3H]pyrilamine displacement); design: species or system bovine; conditions: average N=2
T1 construct: the receptors were obtained from bovine cerebellar membrane tissue; from tissue; host or cells: bovine cerebellar membranes

M3 muscarinic receptor = biological target: T2, M3 muscarinic receptor (Homo sapiens, UniProt P20309); assay: M3 binding assay ([3H]-scopolamine, N-methyl chloride displacement); conditions: average N=2
T2 construct: purchased PerkinElmer, Inc., Wellesley, Mass; host or cells: CHO cells
T2 sequence (P20309 whole entry): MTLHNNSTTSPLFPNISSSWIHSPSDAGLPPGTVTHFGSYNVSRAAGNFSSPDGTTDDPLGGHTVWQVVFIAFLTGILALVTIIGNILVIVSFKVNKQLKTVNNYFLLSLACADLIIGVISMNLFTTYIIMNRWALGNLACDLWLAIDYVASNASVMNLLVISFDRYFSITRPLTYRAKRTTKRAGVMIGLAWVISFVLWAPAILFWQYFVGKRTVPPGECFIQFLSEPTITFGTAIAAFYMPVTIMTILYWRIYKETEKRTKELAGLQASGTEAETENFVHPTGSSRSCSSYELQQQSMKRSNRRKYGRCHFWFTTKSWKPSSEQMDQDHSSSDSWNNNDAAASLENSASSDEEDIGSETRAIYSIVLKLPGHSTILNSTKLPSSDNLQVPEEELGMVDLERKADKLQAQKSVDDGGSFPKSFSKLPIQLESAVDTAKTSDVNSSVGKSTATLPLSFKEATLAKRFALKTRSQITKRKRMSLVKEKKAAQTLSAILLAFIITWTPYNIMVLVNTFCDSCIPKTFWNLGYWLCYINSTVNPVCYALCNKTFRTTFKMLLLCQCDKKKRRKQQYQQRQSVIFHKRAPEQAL

Histamine, H1 = Histamine, H1 (Bos taurus, UniProt P30546); assay: Binding specificity panel; conditions: 1.0E−6; average N=2
Chain of Histamine, H1 (P30546 whole entry): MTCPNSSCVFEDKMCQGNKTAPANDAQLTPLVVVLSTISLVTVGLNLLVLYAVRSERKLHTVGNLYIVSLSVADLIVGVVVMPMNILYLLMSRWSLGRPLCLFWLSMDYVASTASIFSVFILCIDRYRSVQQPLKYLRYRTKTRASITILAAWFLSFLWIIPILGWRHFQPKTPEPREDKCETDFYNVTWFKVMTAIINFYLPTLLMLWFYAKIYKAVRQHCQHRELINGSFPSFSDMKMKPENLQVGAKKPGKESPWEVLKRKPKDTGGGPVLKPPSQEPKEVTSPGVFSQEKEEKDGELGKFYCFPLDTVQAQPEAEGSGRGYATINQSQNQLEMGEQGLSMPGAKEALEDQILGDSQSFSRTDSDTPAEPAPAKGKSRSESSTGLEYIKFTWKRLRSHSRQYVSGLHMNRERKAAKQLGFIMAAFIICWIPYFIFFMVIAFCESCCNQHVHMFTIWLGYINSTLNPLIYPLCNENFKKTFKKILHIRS
Source text: The percentage inhibition (average; N=2) for these receptors is shown below in Table 12.
Values in Table 12 are expressed as percentage inhibition of specific binding, and these values represent the average of replicate tubes at each of the concentrations tested.

male Wistar rats = assay: SCORE-2000 sleep-wakefulness, locomotor activity and body temperature monitoring

T1 sequence (P30546 whole entry): as above

CC(CC(=O)O)N1CCC(=C2c3ccc(F)cc3COc3ccccc32)CC1 (stereo not shown) [Compound 37]
% Inhibition, H1 (H1 histamine receptor; concentration 1.0E−5): 95.79% | % Specific Binding, H1 (H1 histamine receptor; concentration 1.0E−5): 3.21% | % Inhibition, H1 (H1 histamine receptor; concentration 1.0E−6): 93.75% | % Specific Binding, H1 (H1 histamine receptor; concentration 1.0E−6): 6.25% | % Inhibition, H1 (H1 histamine receptor; concentration 1.0E−7): 60.82% | % Specific Binding, H1 (H1 histamine receptor; concentration 1.0E−7): 39.18% | % Inhibition, H1 (H1 histamine receptor; concentration 1.0E−8): 8.60% | % Specific Binding, H1 (H1 histamine receptor; concentration 1.0E−8): 91.40% | % Inhibition, H1 (H1 histamine receptor; concentration 1.0E−9): 2.99% | % Specific Binding, H1 (H1 histamine receptor; concentration 1.0E−9): 97.01% | % Specific Binding, H1 (H1 histamine receptor; concentration 3.0E−6): 6.74% | % Inhibition, H1 (H1 histamine receptor; concentration 3.0E−7): 81.03% | % Specific Binding, H1 (H1 histamine receptor; concentration 3.0E−7): 18.97% | % Inhibition, H1 (H1 histamine receptor; concentration 3.0E−8): 30.37% | % Specific Binding, H1 (H1 histamine receptor; concentration 3.0E−8): 69.53% | % Inhibition, M3 (M3 muscarinic receptor; concentration 1.0E−5): 4.27% | % Specific Binding, M3 (M3 muscarinic receptor; concentration 1.0E−5): 95.73% | % Inhibition, M3 (M3 muscarinic receptor; concentration 1.0E−6): 0.79% | % Specific Binding, M3 (M3 muscarinic receptor; concentration 1.0E−6): 99.21% | % Inhibition, M3 (M3 muscarinic receptor; concentration 1.0E−7): 5.85% | % Specific Binding, M3 (M3 muscarinic receptor; concentration 1.0E−7): 93.15% | % Inhibition, M3 (M3 muscarinic receptor; concentration 1.0E−8): −8.34% | % Specific Binding, M3 (M3 muscarinic receptor; concentration 1.0E−8): 108.34% | % Inhibition, M3 (M3 muscarinic receptor; concentration 1.0E−9): −0.65% | % Specific Binding, M3 (M3 muscarinic receptor; concentration 1.0E−9): 100.65% | % Specific Binding, M3 (M3 muscarinic receptor; concentration 3.0E−6): 94.59% | % Specific Binding, M3 (M3 muscarinic receptor; concentration 3.0E−7): 94.45% | % Inhibition, M3 (M3 muscarinic receptor; concentration 3.0E−8): 6.99% | % Specific Binding, M3 (M3 muscarinic receptor; concentration 3.0E−8): 93.01% | percentage inhibition of specific binding (Histamine, H1): 23.13% | REM inhibition (male Wistar rats; 10 mg/kg): did not produce any | rebound insomnia (male Wistar rats; 10 mg/kg): did not produce any | reduction in body temperature (male Wistar rats; 10 mg/kg): no disproportional reduction | reduction in locomotor activity (LMA) (male Wistar rats; 10 mg/kg): no disproportional reduction | Cumulative NREM sleep time increase, adjusted for baseline and relative to vehicle (male Wistar rats; 10 mg/kg PO, CT-18): 53 min | absolute average sleep bout (male Wistar rats; 10 mg/kg PO, CT-18): 9 min | average sleep bout length increase, adjusted for baseline and relative to vehicle (male Wistar rats; 10 mg/kg PO, CT-18): 5.3 min | peak NREM sleep time (male Wistar rats; 10 mg/kg PO, CT-18): 64 % per hour | body temperature (male Wistar rats; 30 mg/kg): unacceptable drop in body temperature | reduction in LMA (male Wistar rats; 30 mg/kg): no disproportional reduction | Cumulative NREM sleep time increase, adjusted for baseline and relative to vehicle (male Wistar rats; 30 mg/kg PO, CT-18): 62 min | absolute average sleep bout (male Wistar rats; 30 mg/kg PO, CT-18): 9 min | absolute longest sleep bout post-treatment (male Wistar rats; 30 mg/kg PO, CT-18): 25 min | average sleep bout length increase, adjusted for baseline and relative to vehicle (male Wistar rats; 30 mg/kg PO, CT-18): 5.6 min | peak NREM sleep time (male Wistar rats; 30 mg/kg PO, CT-18): 72 % per hour | REM inhibition (male Wistar rats; 30 mg/kg, CT-18): did not produce any appreciable REM inhibition
